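Test compounds were applied to cells in 96-well plates for 48 hours at 5 doses. GI50 is the concentration that inhibits growth by half. TGI marks complete inhibition of growth.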
Tests used:
Experiment in all cases: inhibition of tumour cell growth, NCI panel, 48 h
TK-10 renal = test system: TK-10 renal
SF-539 CNS = test system: SF-539 CNS
HS 578T breast = test system: HS 578T breast
SW-620 colon = test system: SW-620 colon
786-0 renal = test system: 786-0 renal
SNB-19 CNS = test system: SNB-19 CNS
NCI/ADR-RES ovarian = test system: NCI/ADR-RES ovarian
A498 renal = test system: A498 renal
CCRF-CEM leukemia = test system: CCRF-CEM leukemia
CAKI-1 renal = test system: CAKI-1 renal
OVCAR-3 ovarian = test system: OVCAR-3 ovarian
SF-295 CNS = test system: SF-295 CNS
MDA-MB-435 = test system: MDA-MB-435
EKVX NSCLC = test system: EKVX NSCLC
HOP-62 NSCLC = test system: HOP-62 NSCLC
MCF7 breast = test system: MCF7 breast
SF-268 CNS = test system: SF-268 CNS
U251 CNS = test system: U251 CNS
LOX IMVI melanoma = test system: LOX IMVI melanoma
T-47D breast = test system: T-47D breast
SK-OV-3 ovarian = test system: SK-OV-3 ovarian
SR leukemia = test system: SR leukemia
HCT-116 colon = test system: HCT-116 colon
KM12 colon = test system: KM12 colon
MALME-3M melanoma = test system: MALME-3M melanoma
SK-MEL-2 melanoma = test system: SK-MEL-2 melanoma
SN12C renal = test system: SN12C renal
BT-549 breast = test system: BT-549 breast
RXF 393 renal = test system: RXF 393 renal

For CN(C)CCNc1ccc2ncc(C#Cc3cncc(C(=O)Nc4ccc(CN5CCN(C)CC5)c(C(F)(F)F)c4)c3)n2n1, which GI50 (TK-10 renal) is on record?
The GI50 was 1470 nM.

And the TGI (TK-10 renal)?
The TGI was 4360 nM.

And the GI50 (SF-539 CNS)?
Its GI50 is 205 nM.

And the TGI (SF-539 CNS)?
Its TGI is 862 nM.

And the GI50 (HS 578T breast)?
The GI50 was 450 nM.

What about the TGI (HS 578T breast) of the same compound?
The TGI was 1920 nM.

What about the GI50 (SW-620 colon) of the same compound?
The GI50 was 589 nM.

What about the TGI (SW-620 colon) of the same compound?
Its TGI is 2240 nM.

And the GI50 (786-0 renal)?
Its GI50 is 1040 nM.

And the TGI (786-0 renal)?
Its TGI is 2460 nM.

And the GI50 (SNB-19 CNS)?
The GI50 was 950 nM.

What about the TGI (SNB-19 CNS) of the same compound?
Its TGI is 4010 nM.

What about the GI50 (NCI/ADR-RES ovarian) of the same compound?
The GI50 was 9960 nM.

What about the TGI (NCI/ADR-RES ovarian) of the same compound?
The TGI was 47700 nM.

What about the GI50 (A498 renal) of the same compound?
The GI50 was 3100 nM.

And the TGI (A498 renal)?
The TGI was 9700 nM.

What about the GI50 (CCRF-CEM leukemia) of the same compound?
Its GI50 is 28.4 nM.

And the TGI (CCRF-CEM leukemia)?
Its TGI is 5170 nM.

What about the GI50 (CAKI-1 renal) of the same compound?
The GI50 was 713 nM.

What about the TGI (CAKI-1 renal) of the same compound?
Its TGI is 3660 nM.

What about the GI50 (OVCAR-3 ovarian) of the same compound?
The GI50 was 844 nM.

What about the TGI (OVCAR-3 ovarian) of the same compound?
The TGI was 2950 nM.

What about the GI50 (SF-295 CNS) of the same compound?
The GI50 was 1150 nM.

What about the TGI (SF-295 CNS) of the same compound?
The TGI was 7230 nM.

What about the GI50 (MDA-MB-435) of the same compound?
The GI50 was 746 nM.

What about the TGI (MDA-MB-435) of the same compound?
The TGI was 4510 nM.

What about the GI50 (EKVX NSCLC) of the same compound?
Its GI50 is 1530 nM.

And the TGI (EKVX NSCLC)?
Its TGI is 5540 nM.

And the GI50 (HOP-62 NSCLC)?
Its GI50 is 564 nM.

And the TGI (HOP-62 NSCLC)?
Its TGI is 2130 nM.

What about the GI50 (MCF7 breast) of the same compound?
The GI50 was 154 nM.

What about the TGI (MCF7 breast) of the same compound?
Its TGI is 1030 nM.

And the GI50 (SF-268 CNS)?
Its GI50 is 644 nM.

What about the TGI (SF-268 CNS) of the same compound?
Its TGI is 1470 nM.

What about the GI50 (U251 CNS) of the same compound?
Its GI50 is 734 nM.

And the TGI (U251 CNS)?
The TGI was 1890 nM.

What about the GI50 (LOX IMVI melanoma) of the same compound?
Its GI50 is 548 nM.

And the TGI (LOX IMVI melanoma)?
The TGI was 1200 nM.

And the GI50 (T-47D breast)?
The GI50 was 1810 nM.

And the TGI (T-47D breast)?
Its TGI is 9350 nM.

And the GI50 (SK-OV-3 ovarian)?
Its GI50 is 2690 nM.

And the TGI (SK-OV-3 ovarian)?
Its TGI is 9930 nM.

What about the GI50 (SR leukemia) of the same compound?
The GI50 was 60.1 nM.

What about the TGI (SR leukemia) of the same compound?
The TGI was 1620 nM.

And the GI50 (HCT-116 colon)?
The GI50 was 247 nM.

What about the TGI (HCT-116 colon) of the same compound?
The TGI was 1500 nM.

What about the GI50 (KM12 colon) of the same compound?
The GI50 was 76.5 nM.

And the TGI (KM12 colon)?
The TGI was 918 nM.

And the GI50 (MALME-3M melanoma)?
The GI50 was 672 nM.

What about the TGI (MALME-3M melanoma) of the same compound?
The TGI was 1620 nM.

What about the GI50 (SK-MEL-2 melanoma) of the same compound?
Its GI50 is 1110 nM.

What about the TGI (SK-MEL-2 melanoma) of the same compound?
Its TGI is 3050 nM.

What about the GI50 (SN12C renal) of the same compound?
Its GI50 is 774 nM.

What about the TGI (SN12C renal) of the same compound?
Its TGI is 2770 nM.

And the GI50 (BT-549 breast)?
Its GI50 is 987 nM.

What about the TGI (BT-549 breast) of the same compound?
The TGI was 1950 nM.

What about the GI50 (RXF 393 renal) of the same compound?
Its GI50 is 683 nM.

What about the TGI (RXF 393 renal) of the same compound?
The TGI was 1410 nM.

From PubChem BioAssay (NCI)
